Results from patent US11365201B2, “Chlorotonil derivatives” (HELMHOLTZ-ZENTRUM FÜR INFEKTIONSFORSCHUNG GMBH, priority 2017, dated 2022).
Converted amounts (≈) assume the structure as drawn. Read-outs that look alike come from different tables or passages of the source.

How the values were obtained:
Assay type in all cases: cell-based
[1] = tested on: E. coli TolC (+PMBN); experiment: Antimicrobial assay, MIC by microbroth dilution with PMBN; conditions: 16 h, 3 μg/mL polymyxin B nonapeptide (PMBN) added
Protocol: (§1) Bacterial strains used in susceptibility assays (minimum inhibitory concentrations, MIC) were either part of our internal strain collection or were purchased form the German Collection of Microorganisms and Cell Cultures (DSMZ). All compounds were prepared as DMSO stocks and MIC values were determined in standard microbroth dilution assays. Overnight cultures of bacteria were diluted in cation-adjusted Muller-Hinton broth (BBL™, BD) and were adjusted to approximately 10^5 cfu/mL. For the E. coli culture, 3 μg/mL of polymyxin B nonapeptide (PMBN) was added to increase permeability of the outer membrane as chlorotonils were previously shown to not penetrate into Gram-negative cells. Bacteria were grown in the presence of the derivatives in serial dilution for 16 h at their optimal growth temperature. MIC values were determined according to CLSI guidelines (antibiotic concentration at which no visible bacterial growth is observed).

[2] = tested on: B. subtilis DSM-10; experiment: Antimicrobial assay, MIC by microbroth dilution; conditions: 16 h, cation-adjusted Muller-Hinton broth; for MIC: Bacillus subtilis, DSM10
Protocol: as §1, with “For the E. coli culture, 3 μg/mL of polymyxin B nonapeptide (PMBN) was added to increase permeability of the outer membrane as chlorotonils were previously shown to not penetrate into Gram-negative cells.” left out

[3] = tested on: C. glutamicum DSM-20300; experiment: Antimicrobial assay, MIC by microbroth dilution; conditions: 16 h, cation-adjusted Muller-Hinton broth; for MIC: Corynebacterium glutamicum, DSM20300
Protocol: as §1, with “For the E. coli culture, 3 μg/mL of polymyxin B nonapeptide (PMBN) was added to increase permeability of the outer membrane as chlorotonils were previously shown to not penetrate into Gram-negative cells.” left out

[4] = tested on: P. falciparum Dd2 (resistant strain); experiment: Antiplasmodial in vitro drug sensitivity assay (HRP2-ELISA); conditions: P. falciparum Dd2 (resistant strain), read-out: IC50 against P. falciparum Dd2
Protocol: (§2) Two laboratory strains of P. falciparum, the chloroquine sensitive 3D7 and the multi-resistant Dd2 were kept in continuous culture as previously described (Trager and Jensen 1976). In brief, parasites were kept in complete culture medium (RPMI 1640, 25 mM HEPES, 2 mM L-glutamine, 50 μg/ml gentamicin and 0.5% w/v AlbuMAX) at 37° C., 5% CO2 and 5% oxygen at 5% hematocrit with daily change of medium. Synchronization was performed with sorbitol twice a week (Lambros and Vanderberg 1979).
(§3) In Vitro Drug Sensitivity Assay
(§4) All compounds were dissolved in DMSO at stock dilutions between 25 and 100 mM; the reference drug chloroquine diphosphate (MW: 515.86) was diluted in distilled water and DMSO, respectively. […] Antiplasmodial activity of the different compounds was tested in a drug sensitivity assay against the two laboratory strains using the histidine-rich protein 2 (HRP2) assay as described previously (Noedl 2005). In brief: 96 well plates were pre-coated with the different compounds in a threefold dilution before ring stage parasites were added in complete culture medium at a hematocrit of 1.5% and a parasitemia of 0.05% in a total volume of 225 μl per well. After three days of incubation plates were frozen until analyzed by HRP2-ELISA. All compounds were evaluated in duplicate in at least two independent experiments.

[5] = tested on: P. falciparum 3D7 (sensitive strain); experiment: as above; conditions: P. falciparum 3D7 (sensitive strain), read-out: IC50 against P. falciparum 3D7
Protocol: as §2, §3, §4

[6] = tested on: L-929 (murine fibroblasts); experiment: Cytotoxicity assay (MTT, 5 d); conditions: Mus musculus, L929, 120 h
Protocol: Cytotoxicity Assay The murine fibroblast cell line L-929 was obtained from the German Collection of Microorganisms and Cell Cultures (DSMZ) and maintained under conditions recommended by the depositor. Cells were seeded at 6×10^3 cells per well of sterile 96-well plates in 180 μL complete medium and treated with the compounds in serial dilution after 2 h of equilibration. After 5 d, viability was assessed by the MTT method. After 1.5 h incubation with 0.5 mg/mL MTT reagent, cells were washed with PBS and 100 μL of 2-propanol/10 N HCl (250:1) was added. The absorbance at 570 nm was determined on a microplate reader and cell viability was expressed as percentage relative to the respective solvent control. Half-inhibitory concentrations (IC50) were determined by sigmoidal curve fitting.

[7] = tested on: Gram-positive bacteria; experiment: Antimicrobial assay, MIC against a range of Gram-positive bacteria (Table 5)
Protocol: as §1, with “For the E. coli culture, 3 μg/mL of polymyxin B nonapeptide (PMBN) was added to increase permeability of the outer membrane as chlorotonils were previously shown to not penetrate into Gram-negative cells.” left out

[8] = tested on: S. aureus Newman; experiment: Antimicrobial assay, MIC by microbroth dilution; conditions: 16 h, cation-adjusted Muller-Hinton broth; for MIC: Staphylococcus aureus, NEWMAN
Protocol: as §1, with “For the E. coli culture, 3 μg/mL of polymyxin B nonapeptide (PMBN) was added to increase permeability of the outer membrane as chlorotonils were previously shown to not penetrate into Gram-negative cells.” left out

## C[C@@H]1C(=O)O[C@@H](C)/C=C/C=C\[C@@H](C)[C@@H]2C=C[C@@H]3C[C@@](C)(O)[C@H](O)[C@@H](C)[C@H]3[C@@H]2C(=O)C(Cl)(Cl)C1=O [ChA-Epo2-OH]
[1]
  MIC E. coli TolC (+PMBN): >6.4 µg/mL
[2]
  MIC: > 6.4 µg/mL
[3]
  MIC: > 6.4 µg/mL
[4]; Plasmodium falciparum
  IC50: > 2.17 µM
[5]; Plasmodium falciparum
  IC50: > 2.17 µM

## CO[C@@H]1[C@@H](C)[C@H]2[C@@H]3C(=O)C(Cl)(Cl)C(=O)[C@H](C)C(=O)O[C@@H](C)/C=C/C=C\[C@@H](C)[C@@H]3C=C[C@@H]2C[C@@]1(C)O [ChA-Epo2-OMe]
[6]
  IC50: > 100000 nM
[1]
  MIC E. coli TolC (+PMBN): 3.2 µg/mL
[2]
  MIC: > 3.2 µg/mL
[3]
  MIC: > 3.2 µg/mL
[4]; Plasmodium falciparum, μM
  IC50: > 11 µM
[5]; Plasmodium falciparum, μM
  IC50: > 11 µM

## C[C@H]1[C@H]2[C@@H]3C(=O)/C(Cl)=C(\O)[C@H](C)C(=O)O[C@@H](C)/C=C/C=C\[C@@H](C)[C@@H]3C=C[C@@H]2C[C@@]2(C)O[C@@H]12 [ChB1-Epo]
[7]; Enterococcus faecalis, E. faecalis 20478, read-out: MIC
  MIC: 0.8 µg/mL (≈ 1.74 µM)
[7]; Enterococcus faecalis, E. faecalis 29212, read-out: MIC
  MIC: 0.8 µg/mL (≈ 1.74 µM)
[7]; Enterococcus faecium, E. faecium 20477, read-out: MIC
  MIC: 0.2 µg/mL (≈ 0.434 µM)
[7]; Enterococcus faecium, VRE, E. faecium 17050 (VRE), read-out: MIC
  MIC: 32 µg/mL (≈ 69.4 µM)
[7]; Micrococcus luteus, M. luteus, read-out: MIC
  MIC: 0.0125 µg/mL (≈ 0.0271 µM)
[7]; Mycolicibacterium smegmatis, M. smegmatis, read-out: MIC
  MIC: 16 µg/mL (≈ 34.7 µM)
[7]; Priestia megaterium, B. megaterium, read-out: MIC
  MIC: 0.0125 µg/mL (≈ 0.0271 µM)
[7]; Staphylococcus epidermidis, S. epidermidis 28765, read-out: MIC
  MIC: 0.05 µg/mL (≈ 0.108 µM)
[7]; Streptococcus pneumoniae, S. pneumoniae 20566, read-out: MIC
  MIC: 0.4 µg/mL (≈ 0.868 µM)

## CC1=C[C@@H](C)[C@H]2[C@@H]3C(O)=C(Cl)C(=O)[C@H](C)C(=O)O[C@@H](C)/C=C/C=C\[C@@H](C)[C@@H]3C=C[C@@H]2C1 [Chlorotonil B (ChB), Chlorotonil B, reference compound]
[7]; B. megaterium
  MIC: 0.1 µg/mL (≈ 0.225 µM)
[7]; E. faecalis 20478
  MIC: >3.2 µg/mL
[7]; E. faecalis 29212
  MIC: >3.2 µg/mL
[7]; E. faecium 17050 (VRE)
  MIC: >3.2 µg/mL
[7]; E. faecium 20477
  MIC: >3.2 µg/mL
[7]; M. luteus
  MIC: 0.4 µg/mL (≈ 0.899 µM)
[7]; M. smegmatis
  MIC: 0.0125 µg/mL (≈ 0.0281 µM)
[7]; S. epidermidis 28765
  MIC: >3.2 µg/mL
[7]; S. pneumoniae 11865 (PRSP)
  MIC: >16 µg/mL
[7]; S. pneumoniae 20566
  MIC: 1.6 µg/mL (≈ 3.6 µM)
[1]
  MIC E. coli TolC (+PMBN): >3.2 µg/mL
[2]
  MIC B. subtilis DSM-10: 0.2 µg/mL (≈ 0.449 µM)
[3]
  MIC C. glutamicum DSM-20300: 0.1 µg/mL (≈ 0.225 µM)
[8]
  MIC S. aureus Newman: 0.2 µg/mL (≈ 0.449 µM)
[4]
  IC50: 0.0636 µM
[5]
  IC50: 0.0966 µM

## C[C@@H]1C(=O)O[C@@H](C)/C=C/C=C\[C@@H](C)[C@@H]2C=C[C@@H]3C[C@@](C)(O)[C@H](OCCCCO)[C@@H](C)[C@H]3[C@@H]2C(=O)C(Cl)(Cl)C1=O [ChA-Epo2-OBuOH]
[1]
  MIC E. coli TolC (+PMBN): 1.6 µg/mL
[2]
  MIC: > 3.2 µg/mL
[3]
  MIC: 3.2 µg/mL (≈ 5.46 µM)
[8]
  MIC: > 3.2 µg/mL

## CCO[C@]1(C)C[C@H]2C=C[C@@H]3[C@@H](C(=O)C(Cl)(Cl)C(=O)[C@H](C)C(=O)O[C@@H](C)/C=C/C=C\[C@H]3C)[C@@H]2[C@H](C)[C@H]1O [ChA-Epo1-OEt]
[1]
  MIC E. coli TolC (+PMBN): 1.6 µg/mL
[2]
  MIC: > 6.4 µg/mL
[3]
  MIC: > 6.4 µg/mL
[8]
  MIC: > 1.6 µg/mL

## CCO[C@@H]1[C@@H](C)[C@H]2[C@@H]3C(=O)C(Cl)(Cl)C(=O)[C@H](C)C(=O)O[C@@H](C)/C=C/C=C\[C@@H](C)[C@@H]3C=C[C@@H]2C[C@@]1(C)O [ChA-Epo2-OEt]
[6]
  IC50: > 100000 nM
[1]
  MIC E. coli TolC (+PMBN): >3.2 µg/mL
[2]
  MIC: > 3.2 µg/mL
[3]
  MIC: > 3.2 µg/mL
[4]; Plasmodium falciparum, μM
  IC50: > 11 µM
[5]; Plasmodium falciparum, μM
  IC50: > 11 µM

## C[C@@H]1C(=O)O[C@@H](C)/C=C/C=C\[C@@H](C)[C@@H]2C=C[C@@H]3C[C@@](C)(O)[C@H](OCC(O)CO)[C@@H](C)[C@H]3[C@@H]2C(=O)C(Cl)(Cl)C1=O (stereo partly shown) [ChA-Epo2-glycerol]
[1]
  MIC E. coli TolC (+PMBN): >3.2 µg/mL
[2]
  MIC: > 3.2 µg/mL
[3]
  MIC: > 3.2 µg/mL
[8]
  MIC: 4 µg/mL (≈ 6.81 µM)
[4]; Plasmodium falciparum
  IC50: > 1.9 µM
[5]; Plasmodium falciparum
  IC50: > 1.9 µM

## C[C@@H]1C(=O)O[C@@H](C)/C=C/C=C\[C@@H](C)[C@@H]2C=C[C@@H]3C[C@@](C)(O)[C@H](F)[C@@H](C)[C@H]3[C@@H]2C(=O)C(Cl)(Cl)C1=O [ChA-Epo2-F]
[1]
  MIC E. coli TolC (+PMBN): 0.8 µg/mL
[2]
  MIC: 0.2 µg/mL (≈ 0.388 µM)
[3]
  MIC: 0.4 to 0.8 µg/mL (≈ 0.776 to 1.55 µM)
[8]
  MIC: 0.2 µg/mL (≈ 0.388 µM)
[4]; Plasmodium falciparum
  IC50: 0.329 µM
[5]; Plasmodium falciparum
  IC50: 0.136 µM

## C[C@@H]1C(=O)O[C@@H](C)/C=C/C=C\[C@@H](C)[C@@H]2C=C[C@@H]3C[C@@](C)(Cl)[C@H](O)[C@@H](C)[C@H]3[C@@H]2C(=O)C(Cl)(Cl)C1=O [ChA-Epo1-Cl]
[1]
  MIC E. coli TolC (+PMBN): 3.2 µg/mL
[2]
  MIC: 3.2 µg/mL (≈ 6.02 µM)
[3]
  MIC: > 3.2 µg/mL
[8]
  MIC: 3.2 µg/mL (≈ 6.02 µM)
[4]; Plasmodium falciparum
  IC50: > 2.1 µM
[5]; Plasmodium falciparum
  IC50: > 2.1 µM

## C[C@@H]1C(=O)O[C@@H](C)/C=C/C=C\[C@@H](C)[C@@H]2C=C[C@@H]3C[C@@](C)(O)[C@H](OCc4ccccc4)[C@@H](C)[C@H]3[C@@H]2C(=O)C(Cl)(Cl)C1=O [ChA-Epo2-OBn]
[1]
  MIC E. coli TolC (+PMBN): >3.2 µg/mL
[2]
  MIC: 0.4 µg/mL (≈ 0.663 µM)
[3]
  MIC: 3.2 µg/mL (≈ 5.3 µM)
[8]
  MIC: 0.4 µg/mL (≈ 0.663 µM)

## CO[C@]1(C)C[C@H]2C=C[C@@H]3[C@@H](C(=O)C(Cl)(Cl)C(=O)[C@H](C)C(=O)O[C@@H](C)/C=C/C=C\[C@H]3C)[C@@H]2[C@H](C)[C@H]1O [ChA-Epo1-OMe]
[1]
  MIC E. coli TolC (+PMBN): 0.8 to 1.6 µg/mL
[2]
  MIC: 6.4 µg/mL (≈ 12.1 µM)
[3]
  MIC: > 6.4 µg/mL
[8]
  MIC: 1.6 µg/mL (≈ 3.03 µM)
